Experiment [1] deals with Tel26 (for FRET) (DNA, G4) AAAGGGTTAGGGTTAGGGTTAGGGAA
Kind of experiment: FRET melting. The conditions noted are these: K+ (60 mM potassium cacodylate); pH 7.4; 400 nM DNA, 1.0 equivalent compound; second Tm (ΔTm 41.5, dimeric complex) at 2-3 equivalents.

In experiment [2] the test system is F10T (for FRET), double-stranded DNA (DNA, hairpin, hexaethylene glycol (HEG) linker between nucleotides 10 and 11) TATAGCTATATATAGCTATA
Description: FRET melting. The conditions noted are these: K+ (60 mM potassium cacodylate); pH 7.4; 400 nM DNA; compound concentration not in text.

The subject of experiment [3] is Tel26 (DNA, G4) AAAGGGTTAGGGTTAGGGTTAGGGAA
Description: NMR solution structure. The conditions noted are these: K+ (25 mM K-phosphate, 70 mM KCl); pH 7.0, 25 °C; bound at 5'-end, slow exchange.

Experiment [4] concerns wtTel26 (DNA, G4) TTAGGGTTAGGGTTAGGGTTAGGGTT
Description: 1H NMR titration. The conditions noted are these: K+ (25 mM K-phosphate, 70 mM KCl); no well-defined complex at higher equivalents.

In general, ΔTm refers to the shift of the melting midpoint relative to a reference. On to `NCCNCCN.NCCNCCN.NCCNCCN.[Pt+2].[Pt+2].[Pt+2].c1cc(-c2ccc(N(c3ccc(-c4ccncc4)cc3)c3ccc(-c4ccncc4)cc3)cc2)ccn1`, for which the ΔTm in experiment [1] came to 8.4 °C; in experiment [2] it was 2.5 °C. Moreover, the binding entry in experiment [3] and in experiment [4] was “yes” each time.

The values are drawn from PMC6115404 (2018).
